Measured values reported in PubChem BioAssay (NCI).
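Each compound was tested at five concentrations against cells in 96-well plates for 48 hours. The concentration for 50% growth inhibition is given as GI50. TGI is the concentration that stops growth completely.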

What was measured:
Test in all cases: NCI-60 cell line screen, 48 h
786-0 renal = tested on: 786-0 renal
A498 renal = tested on: A498 renal
A549 NSCLC = tested on: A549 NSCLC
ACHN renal = tested on: ACHN renal
BT-549 breast = tested on: BT-549 breast
CAKI-1 renal = tested on: CAKI-1 renal
CCRF-CEM leukemia = tested on: CCRF-CEM leukemia
COLO 205 colon = tested on: COLO 205 colon
DU-145 prostate = tested on: DU-145 prostate
EKVX NSCLC = tested on: EKVX NSCLC
HCC-2998 colon = tested on: HCC-2998 colon
HCT-116 colon = tested on: HCT-116 colon
HCT-15 colon = tested on: HCT-15 colon
HL-60(TB) leukemia = tested on: HL-60(TB) leukemia
HOP-62 NSCLC = tested on: HOP-62 NSCLC
HOP-92 NSCLC = tested on: HOP-92 NSCLC
HS 578T breast = tested on: HS 578T breast
HT29 colon = tested on: HT29 colon
IGROV1 ovarian = tested on: IGROV1 ovarian
K-562 leukemia = tested on: K-562 leukemia
KM12 colon = tested on: KM12 colon
LOX IMVI melanoma = tested on: LOX IMVI melanoma
M14 melanoma = tested on: M14 melanoma
MALME-3M melanoma = tested on: MALME-3M melanoma
MCF7 breast = tested on: MCF7 breast
MDA-MB-231 breast = tested on: MDA-MB-231 breast
MDA-MB-435 = tested on: MDA-MB-435
MDA-MB-468 breast = tested on: MDA-MB-468 breast
MOLT-4 leukemia = tested on: MOLT-4 leukemia
NCI-H226 lung = tested on: NCI-H226 lung
NCI-H23 lung = tested on: NCI-H23 lung
NCI-H460 lung = tested on: NCI-H460 lung
NCI-H522 lung = tested on: NCI-H522 lung
NCI/ADR-RES ovarian = tested on: NCI/ADR-RES ovarian
OVCAR-3 ovarian = tested on: OVCAR-3 ovarian
OVCAR-4 ovarian = tested on: OVCAR-4 ovarian
OVCAR-5 ovarian = tested on: OVCAR-5 ovarian
OVCAR-8 ovarian = tested on: OVCAR-8 ovarian
PC-3 prostate = tested on: PC-3 prostate
RPMI-8226 leukemia = tested on: RPMI-8226 leukemia
RXF 393 renal = tested on: RXF 393 renal
SF-268 CNS = tested on: SF-268 CNS
SF-295 CNS = tested on: SF-295 CNS
SF-539 CNS = tested on: SF-539 CNS
SK-MEL-2 melanoma = tested on: SK-MEL-2 melanoma
SK-MEL-28 melanoma = tested on: SK-MEL-28 melanoma
SK-MEL-5 melanoma = tested on: SK-MEL-5 melanoma
SK-OV-3 ovarian = tested on: SK-OV-3 ovarian
SN12C renal = tested on: SN12C renal
SNB-19 CNS = tested on: SNB-19 CNS
SNB-75 CNS = tested on: SNB-75 CNS
SR leukemia = tested on: SR leukemia
SW-620 colon = tested on: SW-620 colon
T-47D breast = tested on: T-47D breast
TK-10 renal = tested on: TK-10 renal
U251 CNS = tested on: U251 CNS
UACC-257 melanoma = tested on: UACC-257 melanoma
UACC-62 melanoma = tested on: UACC-62 melanoma
UO-31 renal = tested on: UO-31 renal

C=C1CCC2C3(C)COC(c4cccc(F)c4)OC3CCC2(C)C1C/C=C1/C(=O)OCC1O (stereo not drawn)
GI50 (786-0 renal): 2.69 µM
TGI (786-0 renal): 7.51 µM
GI50 (A498 renal): 14.1 µM
TGI (A498 renal): 27.7 µM
GI50 (A549 NSCLC): 7.04 µM
TGI (A549 NSCLC): 22.7 µM
GI50 (ACHN renal): 4.48 µM
TGI (ACHN renal): 15.8 µM
GI50 (BT-549 breast): 2.7 µM
TGI (BT-549 breast): 7.09 µM
GI50 (CAKI-1 renal): 7.43 µM
TGI (CAKI-1 renal): 20.2 µM
GI50 (CCRF-CEM leukemia): 2.35 µM
TGI (CCRF-CEM leukemia): 7.34 µM
GI50 (COLO 205 colon): 4.09 µM
TGI (COLO 205 colon): 15.6 µM
GI50 (DU-145 prostate): 6.21 µM
TGI (DU-145 prostate): 18.5 µM
GI50 (EKVX NSCLC): 16.5 µM
TGI (EKVX NSCLC): 30.8 µM
GI50 (HCC-2998 colon): 8.09 µM
TGI (HCC-2998 colon): 20.9 µM
GI50 (HCT-116 colon): 1.85 µM
TGI (HCT-116 colon): 3.62 µM
GI50 (HCT-15 colon): 2.61 µM
TGI (HCT-15 colon): 8.15 µM
GI50 (HL-60(TB) leukemia): 1.98 µM
TGI (HL-60(TB) leukemia): 6.83 µM
GI50 (HOP-62 NSCLC): 17.3 µM
TGI (HOP-62 NSCLC): 31.6 µM
GI50 (HOP-92 NSCLC): 6.48 µM
TGI (HOP-92 NSCLC): 21.2 µM
GI50 (HS 578T breast): 4.62 µM
TGI (HS 578T breast): 39.7 µM
GI50 (HT29 colon): 2.19 µM
TGI (HT29 colon): 4.75 µM
GI50 (IGROV1 ovarian): 10.3 µM
TGI (IGROV1 ovarian): 23.2 µM
GI50 (K-562 leukemia): 3.39 µM
TGI (K-562 leukemia): 16.1 µM
GI50 (KM12 colon): 3.92 µM
TGI (KM12 colon): 14.8 µM
GI50 (LOX IMVI melanoma): 1.67 µM
TGI (LOX IMVI melanoma): 3.08 µM
GI50 (M14 melanoma): 6.93 µM
TGI (M14 melanoma): 21.3 µM
GI50 (MALME-3M melanoma): 13.2 µM
TGI (MALME-3M melanoma): 26.2 µM
GI50 (MCF7 breast): 2.25 µM
TGI (MCF7 breast): 7.71 µM
GI50 (MDA-MB-231 breast): 2.61 µM
TGI (MDA-MB-231 breast): 7.25 µM
GI50 (MDA-MB-435): 2.61 µM
TGI (MDA-MB-435): 9.71 µM
GI50 (MDA-MB-468 breast): 2.11 µM
TGI (MDA-MB-468 breast): 6.28 µM
GI50 (MOLT-4 leukemia): 3.24 µM
TGI (MOLT-4 leukemia): 12 µM
GI50 (NCI-H226 lung): 1.85 µM
TGI (NCI-H226 lung): 3.87 µM
GI50 (NCI-H23 lung): 11 µM
TGI (NCI-H23 lung): 24.2 µM
GI50 (NCI-H460 lung): 4.03 µM
TGI (NCI-H460 lung): 18.6 µM
GI50 (NCI-H522 lung): 1.71 µM
TGI (NCI-H522 lung): 4 µM
GI50 (NCI/ADR-RES ovarian): 1.98 µM
TGI (NCI/ADR-RES ovarian): 4.08 µM
GI50 (OVCAR-3 ovarian): 1.87 µM
TGI (OVCAR-3 ovarian): 4.08 µM
GI50 (OVCAR-4 ovarian): 4.32 µM
TGI (OVCAR-4 ovarian): 18.3 µM
GI50 (OVCAR-5 ovarian): 4.04 µM
TGI (OVCAR-5 ovarian): 15.9 µM
GI50 (OVCAR-8 ovarian): 1.86 µM
TGI (OVCAR-8 ovarian): 4.27 µM
GI50 (PC-3 prostate): 3.3 µM
TGI (PC-3 prostate): 15.3 µM
GI50 (RPMI-8226 leukemia): 2.58 µM
TGI (RPMI-8226 leukemia): 6.78 µM
GI50 (RXF 393 renal): 5.88 µM
TGI (RXF 393 renal): 19.6 µM
GI50 (SF-268 CNS): 6 µM
TGI (SF-268 CNS): 19.8 µM
GI50 (SF-295 CNS): 3.87 µM
TGI (SF-295 CNS): 15.1 µM
GI50 (SF-539 CNS): 1.96 µM
TGI (SF-539 CNS): 3.81 µM
GI50 (SK-MEL-2 melanoma): 5.95 µM
TGI (SK-MEL-2 melanoma): 19.1 µM
GI50 (SK-MEL-28 melanoma): 5.58 µM
TGI (SK-MEL-28 melanoma): 18 µM
GI50 (SK-MEL-5 melanoma): 11 µM
TGI (SK-MEL-5 melanoma): 23 µM
GI50 (SK-OV-3 ovarian): 16.1 µM
TGI (SK-OV-3 ovarian): 29.9 µM
GI50 (SN12C renal): 2.95 µM
TGI (SN12C renal): 9.4 µM
GI50 (SNB-19 CNS): 13.1 µM
TGI (SNB-19 CNS): 25.9 µM
GI50 (SNB-75 CNS): 2.13 µM
TGI (SNB-75 CNS): 10.8 µM
GI50 (SR leukemia): 3.52 µM
TGI (SR leukemia): 17.7 µM
GI50 (SW-620 colon): 1.48 µM
TGI (SW-620 colon): 3.26 µM
GI50 (T-47D breast): 3.61 µM
TGI (T-47D breast): 16 µM
GI50 (TK-10 renal): 14.8 µM
TGI (TK-10 renal): 28.2 µM
GI50 (U251 CNS): 2.25 µM
TGI (U251 CNS): 6.24 µM
GI50 (UACC-257 melanoma): 5.51 µM
TGI (UACC-257 melanoma): 19.7 µM
GI50 (UACC-62 melanoma): 4.68 µM
TGI (UACC-62 melanoma): 16.9 µM
GI50 (UO-31 renal): 5.14 µM
TGI (UO-31 renal): 18.2 µM
